Measured values as given in patent publication EP0435794A1, “Alkenyl- or heteroaryl thio, sulfone, sulfoxy herbicides” (RHONE-POULENC AGROCHIMIE, priority 1989, dated 1991).

Columns and labels:
Assay type in all cases: in vivo
ALISMA CANALICULATUM = test: Exemple D: herbicide application pre or post emergence on submerged plants (rice paddy model); details: 2-leaf stage, 24 days
Source text: (§1) Exemple D : Application herbicide en pré ou post levée d'espèces végétales submergées (modèle rizière)
(§2) Dans des pots de 9 x 9 x 9 cm remplis de terre agricole on sème un nombre de graines ou on plante un nombre de bulbes ou rhizomes déterminé en fonction de l'espèce végétale ou de la grosseur des organes. Pour le riz, 4 plants au stade 2-3 feuilles sont transplantés dans un pot rempli de terre végétale 4 jours avant le traitement.
(§3) Les pots sont ensuite immergés dans un bac de taille adapté aux pots de manière à ce que l'eau recouvre de 1 à 2 cm la surface du sol.
(§4) Le stade de traitement est le stade prélevée ou 1 à 2 feuilles développées des adventices. Le traitement est effectué par répartition de la bouillie dans l'eau de submersion en quantité correspondant à une dose d'application de 500 l/ha et contenant la matière active à la concentration requise.
(§5) La bouillie utilisée pour le traitement est une solution ou suspension de la matière active dans un mélange acétone/eau en proportion 50/50, en présence de 0,05 % en poids de Cemulsol NP 10 (agent tensioactif constitué d'alkylphénol polyéthoxylé, notamment de nonylphénol polyéthoxylé) et 0,04 % en poids de tween 20 (agent tensio-actif constitué d'un oléate de dérivé polyoxyéthyléné du sorbitol).
(§6) Dans le cas d'une suspension, celle-ci est obtenue en mélangeant et broyant les ingrédients dans un microniseur de façon à obtenir une grosseur moyenne de particules inférieures à 40 microns.
(§7) Le niveau d'eau de submersion est ensuite maintenu par apport d'eau tout au long de la durée de l'expérimentation soit […]. Les bacs contenant les pots sont placés dans une serre régulée en température à 18°C la nuit et 22°C le jour et en humidité à 70 % d'humidité relative.
(§8) Au bout de 24 jours, on compte le nombre de plantes vivantes dans les pots traités par la bouillie contenant la matière active à tester et le nombre de plantes vivantes dans un pot témoin traité selon les mêmes conditions, mais au moyen d'une bouillie ne contenant pas de matière active. On mesure ainsi un pourcentage (D) des destructions du nombre de pieds dans le pot traité par rapport au nombre de plantes dans les pots non traités (témoin). On mesure, sur les plantes traitées restantes, le pourcentage de réduction de taille (RT) par rapport aux plantes témoin. Le pourcentage du volume foliaire non détruit par le produit est donc donné par la formule: ([100-D] x [100-RT])/(100)= A [formula]
(§9) Cette valeur A est transformée en notation de 0 à 5 selon l'échelle suivante:
(§10) Les résultats obtenus sont présentés dans le tableau suivant pour des doses d'application de 500, 1000 ou 2000 g de matière active par hectare.

CYPERUS SEROTINUS = test: as above; details: 24 days; for % d'efficacité CYPERUS SEROTINUS (1 feuille): 1-leaf stage; for % d'efficacité CYPERUS SEROTINUS (prélevée): pre-emergence
Source text: as §1, §2, §3, §4, §5, §6, §7, §8, §9, §10

Echinochloa crus galli [1] = test: as above; details: 24 days; for % d'efficacité ECHINOCHLOA CRUS GALLI (1 feuille): 1-leaf stage; for % d'efficacité ECHINOCHLOA CRUS GALLI (prélevée): pre-emergence
Source text: as §1, §2, §3, §4, §5, §6, §7, §8, §9, §10

[2] = tested on: ORYSA SATIVA Cv Nihonbare; test: Exemple D: herbicide application on submerged plants (rice paddy model), transplanted rice; details: rice transplanted 4 days before treatment, 24 days
Source text: as §1, §2, §3, §4, §5, §6, §7, §8, §9, §10
COMPOSE N°5/RIZ (transplanté 4 jours avant traitement)

Digitaria sanguinalis = test: Exemple A: herbicide application, pre-emergence; details: dose 4 Kg m.a./ha, notation 0 à 5 after 24 days
Source text: (§11) Exemple A - Application herbicide, en prélevée des espèces végétales
(§12) Dans des pots de 7 x 7 x 8 cm remplis de terre agricole légère, on sème un nombre de graines déterminé en fonction de l'espèce végétale et de la grosseur de la graine.
(§13) Les pots sont traités par pulvérisation de bouillie en quantité correspondant à une dose volumique d'application de 500 l/ha et contenant la matière active à la concentration désirée.
(§14) Le traitement avec la bouillie est donc effectué sur des graines non recouvertes de terre (on utilise le terme de bouillie pour désigner, en général, les compositions diluées à l'eau, telles qu'on les applique sur les végétaux).
as §5, with “proportions” for “proportion”, “cemulsol” for “Cemulsol”, “tensio-actif)” for “tensioactif”
(§15) Dans le cas d'une suspension, celle-ci est obtenue en mélangeant et broyant les ingrédients dans un microniseur de façon à obtenir une grosseur moyenne de particules inférieure à 40 microns.
(§16) Après traitement, on recouvre les graines d'une couche de terre d'environ 3 mm d'épaisseur.
(§17) Les pots sont alors placés dans des bacs destinés à recevoir l'eau d'arrosage, en subirrigation, et maintenus pendant 24 jours à température ambiante sous 70 % d'humidité relative.
(§18) Le relevé est effectué de la façon suivante:
(§19) Au bout de 24 jours, on mesure un pourcentage (D) des destructions du nombre de pieds dans le pot traité par rapport au nombre de plantes dans les pots non traités (témoin). On mesure, sur les plantes traitées restantes, le pourcentage de réduction de taille (RT) par rapport aux plantes témoin.
(§20) Le pourcentage du volume foliaire non détruit par le produit est donc donné par la formule: ([100-D] x [100-RT])/(100)= A [formula]
as §9
(§21) Les résultats obtenus sont présentés après l'exemple B pour des doses d'application de 4000 g/ha à 1000 g/ha.
(§22) Les espèces végétales utilisées dans ces exemples A et B sont: […]

Cyperus esculentus = test: Exemple A: herbicide application, pre-emergence; details: dose 4 Kg m.a./ha, notation 0 à 5 after 24 days
Source text: as §11, §12, §13, §14
as §5, with “proportions” for “proportion”, “cemulsol” for “Cemulsol”, “tensio-actif)” for “tensioactif”
as §15, §16, §17, §18, §19, §20, §9, §21, §22

Avena fatua = test: Exemple A: herbicide application, pre-emergence; details: dose 4 Kg m.a./ha, notation 0 à 5 after 24 days
Source text: as §11, §12, §13, §14
as §5, with “proportions” for “proportion”, “cemulsol” for “Cemulsol”, “tensio-actif)” for “tensioactif”
as §15, §16, §17, §18, §19, §20, §9, §21, §22

Echinochloa crus galli [3] = test: Exemple A: herbicide application, pre-emergence; details: dose 4 Kg m.a./ha, notation 0 à 5 after 24 days
Source text: as §11, §12, §13, §14
as §5, with “proportions” for “proportion”, “cemulsol” for “Cemulsol”, “tensio-actif)” for “tensioactif”
as §15, §16, §17, §18, §19, §20, §9, §21, §22

Alopecurus myosuroïdes = test: Exemple A: herbicide application, pre-emergence; details: dose 4 Kg m.a./ha, notation 0 à 5 after 24 days
Source text: as §11, §12, §13, §14
as §5, with “proportions” for “proportion”, “cemulsol” for “Cemulsol”, “tensio-actif)” for “tensioactif”
as §15, §16, §17, §18, §19, §20, §9, §21, §22

[4] = 500 g de matière active par hectare
[5] = 1000 g de matière active par hectare

Row | SMILES | % d'efficacité ALISMA CANALICULATUM (2 feuilles) (ALISMA CANALICULATUM; [4]) | % d'efficacité ALISMA CANALICULATUM (2 feuilles) (ALISMA CANALICULATUM; [5]) | % d'efficacité CYPERUS SEROTINUS (1 feuille) (CYPERUS SEROTINUS; [4]) | % d'efficacité CYPERUS SEROTINUS (1 feuille) (CYPERUS SEROTINUS; [5]) | % d'efficacité CYPERUS SEROTINUS (prélevée) (CYPERUS SEROTINUS; [4]) | % d'efficacité CYPERUS SEROTINUS (prélevée) (CYPERUS SEROTINUS; [5]) | % d'efficacité ECHINOCHLOA CRUS GALLI (1 feuille) (Echinochloa crus galli [1]; [4]) | % d'efficacité ECHINOCHLOA CRUS GALLI (1 feuille) (Echinochloa crus galli [1]; [5]) | % d'efficacité ECHINOCHLOA CRUS GALLI (prélevée) (Echinochloa crus galli [1]; [4]) | % d'efficacité ECHINOCHLOA CRUS GALLI (prélevée) (Echinochloa crus galli [1]; [5]) | % d'efficacité ORYSA SATIVA Cv Nihonbare [2, 4] | % d'efficacité ORYSA SATIVA Cv Nihonbare [2, 5] | ACTIVITE HERBICIDE DE PRELEVEE DIG (Digitaria sanguinalis) | ACTIVITE HERBICIDE DE PRELEVEE CYP (Cyperus esculentus) | ACTIVITE HERBICIDE DE PRELEVEE AVE (Avena fatua) | ACTIVITE HERBICIDE DE PRELEVEE ECH (Echinochloa crus galli [3]) | ACTIVITE HERBICIDE DE PRELEVEE ALO (Alopecurus myosuroïdes)
1 | CCCCOCN(C(=O)CCl)c1c(CC)cccc1CC [Butachlor, reference compound] | 4 (10 à 30) | 5 (0 à 10) | 0 (90 à 100) | 1 (70 à 90) | 0 (90 à 100) | 1 (70 à 90) | 1 (70 à 90) | 4 (10 à 30) | 5 (0 à 10) | 5 (0 à 10) | 0 (90 à 100) | 0 (90 à 100) | – | – | – | – | –
2 | C=C(CS(=O)(=O)c1cccs1)c1cccc(Cl)n1 [compound 4, 2-(6-chloro 2-pyridyl) 1-(2-thiénylsulfonyl) 2-propène] | – | – | – | – | – | – | – | – | – | – | – | – | 5 (O à 10) | 5 (O à 10) | 3 (30 à 50) | 5 (O à 10) | 5 (O à 10)
3 | C=C(CS(=O)(=O)c1sccc1Br)c1cccc(F)c1 [compound 9, 1-[(3-bromo 2-thiényl)sulfonyl] 2-(3-fluorophényl)2-propène] | – | – | – | – | – | – | – | – | – | – | – | – | 5 (O à 10) | 4 (10 à 30) | 5 (O à 10) | 5 (O à 10) | 5 (O à 10)
